Source: ChEMBL document CHEMBL3638976, “Azetidine derivatives” (2014)

Tests used:
Cathepsin S = Cathepsin S (Homo sapiens, UniProt P25774); test: (§1) Enzyme Inhibition Assay: Enzyme activity is measured by observing the increase in fluorescence intensity caused by cleavage of a peptide substrate containing a fluorophore whose emission is quenched in the intact peptide.Assay buffer: 100 mM potassium phosphate pH 6.5, EDTA-Na 5 mM, Triton X-100 0.001%, DTT 5 mM.Enzymes (all at 1 nM): human and mouse Cathepsin S, Cat K, Cat B, Cat L.Substrate (20 μM): Z-Val-Val-Arg-AMC, except for Cat K which uses Z-Leu-Arg-AMC (both from Bachem).Z=Benzyloxycarbonyl.AMC=7-Amino-4-Methyl-Coumarin.DTT=dithiothreitol.Final volume: 100 μL.Excitation 360 nm, Emission 465 nm.Enzyme is added to the substance dilutions in 96-well microtitre plates and the reaction is started with substrate. Fluorescence emission is measured over 20 minutes, during which time a linear increase is observed in the absence of inhibitor.
Cathepsin S, sequence (P25774 whole entry): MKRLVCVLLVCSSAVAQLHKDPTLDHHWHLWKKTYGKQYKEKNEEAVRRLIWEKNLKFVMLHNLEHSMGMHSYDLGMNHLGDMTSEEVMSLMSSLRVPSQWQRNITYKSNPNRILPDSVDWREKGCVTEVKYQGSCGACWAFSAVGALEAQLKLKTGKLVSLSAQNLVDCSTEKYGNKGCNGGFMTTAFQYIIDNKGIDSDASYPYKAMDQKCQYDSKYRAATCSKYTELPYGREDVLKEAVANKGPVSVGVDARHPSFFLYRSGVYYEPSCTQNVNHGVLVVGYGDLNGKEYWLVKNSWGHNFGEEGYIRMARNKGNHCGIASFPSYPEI

Procathepsin L = Procathepsin L (Homo sapiens, UniProt P07711); test: as §1
Procathepsin L, sequence (P07711 whole entry): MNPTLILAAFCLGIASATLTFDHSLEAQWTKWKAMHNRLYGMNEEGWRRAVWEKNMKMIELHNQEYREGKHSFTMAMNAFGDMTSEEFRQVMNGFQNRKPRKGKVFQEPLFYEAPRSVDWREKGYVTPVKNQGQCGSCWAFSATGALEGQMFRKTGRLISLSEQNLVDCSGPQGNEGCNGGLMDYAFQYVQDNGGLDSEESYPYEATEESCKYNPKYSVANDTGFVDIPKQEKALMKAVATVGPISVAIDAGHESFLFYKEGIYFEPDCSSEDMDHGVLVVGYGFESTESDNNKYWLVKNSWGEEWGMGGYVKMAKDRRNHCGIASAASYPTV

Row | IC50 (Cathepsin S) [µM] | IC50 (Procathepsin L) [µM] | Structure (SMILES)
1 | 0.0055 | 0.188 | C[C@H](Oc1ccc(S(=O)(=O)[C@@H]2C[C@@H](C(=O)NC3(C#N)CC3)N(C(=O)C3(c4ncc(Br)cc4F)CCN3C(=O)OC(C)(C)C)C2)c(Cl)c1)C(F)(F)F (stereo partly drawn)
2 | 0.00213 | 0.0166 | C[C@H](Oc1ccc(S(=O)(=O)[C@@H]2C[C@@H](C(=O)NC3(C#N)CC3)N(C(=O)C3(c4ncc(Br)cc4F)CN(C)C3)C2)c(Cl)c1)C(F)(F)F
3 | 0.00155 | 0.523 | Cc1cc(-c2ccc(S(=O)(=O)[C@@H]3C[C@@H](C(=O)NC4(C#N)CC4)N(C(=O)C4(c5ncc(Cl)cc5F)CCN4C(=O)OC(C)(C)C)C3)c(Cl)c2)ccn1 (stereo partly drawn)
4 | 0.00112 | 1.16 | Cn1cc(-c2ccc(S(=O)(=O)[C@@H]3C[C@@H](C(=O)NC4(C#N)CC4)N(C(=O)C4(c5ncc(Br)cc5F)CCN4C(=O)OC(C)(C)C)C3)c(Cl)c2)cn1 (stereo partly drawn)
